From paper PMC9405123, “Design, Synthesis and Mechanistic Studies of Novel Isatin-Pyrazole Hydrazone Conjugates as Selective and Potent Bacterial MetAP Inhibitors” (Antibiotics, 2022)
Values after ≈ are worked out from the molar mass of the structure shown. Where two headings read alike, the source gives them in different places.

Assays:
[1] = system: K. pneumoniae; test: Growth inhibition screening (broth dilution); type: cell-based, Klebsiella pneumonia; conditions: for inhibition at 250 µg/mL: Klebsiella pneumoniae
Procedure: (§1) In vitro screening of the compounds (PS1–14) was performed to assess the antibacterial activity against three Gram-positive (Staphylococcus aureus, Enterococcus faecalis and Bacillus subtilis,) and three Gram-negative (Pseudomonas aeruginosa, Klebsiella pneumonia and Escherichia coli) bacterial strains using the standard NCCLS broth dilution assay. The study’s standard drugs were ciprofloxacin (CIP) and ampicillin (AMP). Compounds were dissolved in a polar solvent (DMSO) and distributed into a 96-well plate in 200 µL of nutrient broth medium, with a final concentration of the compounds […] in each well. The bacterial cells (about 2.5 × 10^5 cells/mL) were inoculated into each well and incubated at 37 °C overnight. After incubation, the growth was measured by turbidity of the culture at 590 nm by spectrophotometer.

[2] = system: E. coli; test: Combination study with AMP or CIP
[3] = system: B. subtilis; test: Growth inhibition screening (broth dilution); type: cell-based, Bacillus subtilis; conditions: for inhibition at 250 µg/mL: Bacillus subtilis
Procedure: as §1

[4] = system: P. aeruginosa; test: Growth inhibition screening (broth dilution); type: cell-based, Pseudomonas aeruginosa; conditions: for inhibition at 250 µg/mL: Pseudomonas aeruginosa
Procedure: as §1

[5] = system: E. coli; test: Growth inhibition screening (broth dilution); type: cell-based, Escherichia coli; conditions: for inhibition at 250 µg/mL: Escherichia coli
Procedure: as §1

[6] = system: E. faecalis; test: Minimum inhibitory concentration (broth dilution); type: cell-based; conditions: Enterococcus faecalis, alone
[7] = system: S. aureus; test: Minimum inhibitory concentration (broth dilution); type: cell-based; conditions: Staphylococcus aureus, alone
[8] = system: P. aeruginosa; test: Minimum inhibitory concentration (broth dilution); type: cell-based; conditions: Pseudomonas aeruginosa, alone
[9] = system: E. faecalis; test: Growth inhibition screening (broth dilution); type: cell-based, Enterococcus faecalis; conditions: for inhibition at 250 µg/mL: Enterococcus faecalis
Procedure: as §1

[10] = system: K. pneumoniae; test: Combination study with AMP or CIP
[11] = system: E. coli; test: Minimum inhibitory concentration (broth dilution); type: cell-based, Escherichia coli; conditions: Escherichia coli, alone, read-out: MIC
[12] = system: P. aeruginosa; test: Combination study with AMP or CIP
[13] = system: E. faecalis; test: Combination study with AMP or CIP
[14] = system: S. aureus; test: Growth inhibition screening (broth dilution); type: cell-based, Staphylococcus aureus; conditions: for inhibition at 250 µg/mL: Staphylococcus aureus
Procedure: as §1

[15] = system: B. subtilis; test: Combination study with AMP or CIP
[16] = system: S. aureus; test: Combination study with AMP or CIP
[17] = system: K. pneumoniae; test: Minimum inhibitory concentration (broth dilution); type: cell-based, Klebsiella pneumonia; conditions: alone
[18] = target: EfMetAP1a (Enterococcus faecalis, UniProt Q832M5); test: MetAP enzyme inhibition, Morrison Ki (Met-AMC fluorescence); type: biochemical; conditions: Morrison Ki method
EfMetAP1a, sequence (Q832M5 entry or part of it): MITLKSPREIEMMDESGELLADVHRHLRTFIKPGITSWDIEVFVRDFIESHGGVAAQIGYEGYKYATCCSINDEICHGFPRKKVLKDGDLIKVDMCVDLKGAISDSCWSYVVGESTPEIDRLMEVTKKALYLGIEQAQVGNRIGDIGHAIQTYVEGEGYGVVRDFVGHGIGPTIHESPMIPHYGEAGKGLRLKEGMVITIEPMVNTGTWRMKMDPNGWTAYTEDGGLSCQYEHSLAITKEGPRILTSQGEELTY

[19] = target: T1, MtMetAP1c (Mycobacterium tuberculosis, UniProt P9WK19); test: as above; type: biochemical, M. tuberculosis; conditions: Morrison Ki method
T1 construct: made in house
T1 sequence (P9WK19 whole entry): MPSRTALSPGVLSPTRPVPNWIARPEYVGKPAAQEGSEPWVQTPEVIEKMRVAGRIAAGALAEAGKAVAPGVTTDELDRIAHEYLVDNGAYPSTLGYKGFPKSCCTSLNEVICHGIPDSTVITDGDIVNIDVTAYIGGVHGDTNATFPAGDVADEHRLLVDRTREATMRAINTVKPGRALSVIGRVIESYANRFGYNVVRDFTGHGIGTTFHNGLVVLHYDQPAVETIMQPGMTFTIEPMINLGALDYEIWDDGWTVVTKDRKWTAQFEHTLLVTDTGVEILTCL
Procedure: MetAP appears to serve a vital role in the co- or post-translational modification of proteins, making it essential for bacterial cell metabolism and survival. In this study, all enzymes, which were used for this study, including MtMetAP1c (M. tuberculosis), EfMetAP1a (E. faecalis), SpMetAP1a (S. pneumoniae) and HsMetAP1b (H. sapiens) enzymes, were expressed and purified in our lab as previously reported. All compounds prepared 10 mM stocks in DMSO and were used for enzyme inhibition studies. The concentration of each enzyme is adjusted such that they have similar reaction rates (HsMetAp1b, 1 µM; SpMetAP1a, 5 µM; EfMetAP1a, 1 µM; MtMetAP1c, 1 µM;) as reported earlier. All assays were performed in […] reaction containing 50 mM HEPES (pH 7.5 for SpMetAP1a and HsMetAP1b; 8.0 for EfMetAP1a, MtMetAP1c, […]), 150 mM NaCl, and CoCl2 (three molar equivalents of corresponding enzymes). The reaction was started by adding 50 μM L-Methionine 7-amido-4-methyl coumarin (Met-AMC) and continuously monitoring the fluorescence of released 7-amino-4-methyl coumarin (AMC) (380 nm excitation and 460 nm emission) in a microplate multimode reader (TECAN, Austria). The maximum percentage of inhibition against enzymes is calculated at […] compound concentration. […] The Ki values were determined according to the Morrison method using three different concentrations of substrates and ten different concentrations of the inhibitor. All experiments were performed in triplicate. GraphPad Prism version 8.0.0 (San Diego, CA, USA) was used to determine all the kinetic parameters.

[20] = system: K. pneumoniae; test: Minimum bactericidal concentration; type: cell-based, Klebsiella pneumonia; conditions: for MBC: Klebsiella pneumoniae
[21] = system: S. aureus; test: Minimum bactericidal concentration; type: cell-based, Staphylococcus aureus; conditions: for MBC: Staphylococcus aureus
[22] = system: P. aeruginosa; test: Minimum bactericidal concentration; type: cell-based, Pseudomonas aeruginosa; conditions: for MBC: Pseudomonas aeruginosa
[23] = system: B. subtilis; test: Minimum inhibitory concentration (broth dilution); type: cell-based; conditions: Bacillus subtilis, alone
[24] = system: B. subtilis; test: Minimum bactericidal concentration; type: cell-based, Bacillus subtilis; conditions: for MBC: Bacillus subtilis
[25] = target: T2, HsMetAP1b (Homo sapiens, UniProt P53582); test: MetAP enzyme inhibition, Morrison Ki (Met-AMC fluorescence); type: biochemical, H. sapiens; conditions: Morrison Ki method
T2 construct: made in house

[26] = target: SpMetAP1a (Streptococcus pneumoniae, UniProt Q8DPV1); test: as above; type: biochemical; conditions: Morrison Ki method
SpMetAP1a, sequence (Q8DPV1 entry or part of it): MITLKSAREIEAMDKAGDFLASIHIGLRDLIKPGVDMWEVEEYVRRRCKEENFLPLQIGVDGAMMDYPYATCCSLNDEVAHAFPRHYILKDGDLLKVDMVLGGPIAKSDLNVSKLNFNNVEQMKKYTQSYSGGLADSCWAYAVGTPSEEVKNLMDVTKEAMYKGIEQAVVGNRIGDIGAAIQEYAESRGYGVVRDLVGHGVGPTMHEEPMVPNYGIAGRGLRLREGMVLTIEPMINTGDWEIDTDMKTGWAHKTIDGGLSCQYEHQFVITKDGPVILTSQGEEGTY

[27] = system: E. coli; test: Minimum bactericidal concentration; type: cell-based, Escherichia coli; conditions: for MBC: Escherichia coli
[28] = system: E. faecalis; test: Minimum bactericidal concentration; type: cell-based, Enterococcus faecalis; conditions: for MBC: Enterococcus faecalis
[29] = Klebsiella pneumoniae, read-out: MIC

With `O=C(O)c1cn(C2CC2)c2cc(N3CCNCC3)c(F)cc2c1=O` [CIP, Ciprofloxacin, reference compound] the inhibition at 250 µg/mL [1] was 100%, the “MIC in Combination” value ([2]; combination PS6 + CIP) was 0.5 µg/mL and the “MIC in Combination” value ([2]; combination PS9 + CIP) was 0.03125 µg/mL. For the same compound, the inhibition at 250 µg/mL [3] was 100%, the inhibition at 250 µg/mL [4] was 100% and the inhibition at 250 µg/mL [5] was 100%. For the same compound, the MIC [6] was 1 µg/mL (≈ 3.02 µM), the MIC [7] was 0.5 µg/mL (≈ 1.51 µM) and the MIC [8] was 4 µg/mL (≈ 12.1 µM). For the same compound, the inhibition at 250 µg/mL [9] was 100%, the “MIC in Combination” value ([10]; combination PS6 + CIP) was 4 µg/mL and the “MIC in Combination” value ([10]; combination PS9 + CIP) was 0.0078 µg/mL. For the same compound, the MIC [11] was 8 µg/mL (≈ 24.1 µM), the “MIC in Combination” value ([12]; combination PS6 + CIP) was 0.5 µg/mL and the “MIC in Combination” value ([12]; combination PS9 + CIP) was 0.125 µg/mL. For the same compound, the “MIC in Combination” value ([13]; combination PS6 + CIP) was 0.0625 µg/mL, the “MIC in Combination” value ([13]; combination PS9 + CIP) was 1 µg/mL and the inhibition at 250 µg/mL [14] was 100%. For the same compound, the “MIC in Combination” value ([15]; combination PS6 + CIP) was 0.0078 µg/mL, the “MIC in Combination” value ([15]; combination PS9 + CIP) was 0.5 µg/mL and the “MIC in Combination” value ([16]; combination PS6 + CIP) was 0.25 µg/mL. For the same compound, the “MIC in Combination” value ([16]; combination PS9 + CIP) was 0.0156 µg/mL and the MIC [17, 29] was 8 µg/mL (≈ 24.1 µM).

`O=C1Nc2cc(Cl)ccc2/C1=N\NC(=O)c1cc(-c2cccc(Br)c2)n[nH]1` [PS3, (E)-3-(3-Bromophenyl)-N′-(6-Chloro-2-Oxoindolin-3-Ylidene)-1H-Pyrazole-5-Carbohydrazide] gave a melting point of 182 to 185 °C, a Ki [18] of 4630 ± 870 nM and a Ki [19] of 2320 ± 280 nM. The inhibition at 250 µg/mL [1] was 97%, the “MBC/MIC Ratio (R*)” value [20] was 8 and the MBC [20] was 512 µg/mL (≈ 1150 µM). For the same compound, the “MBC/MIC Ratio (R*)” value [21] was 1, the MBC [21] was 128 µg/mL (≈ 288 µM) and the “MBC/MIC Ratio (R*)” value [22] was 8. The MBC [22] was 256 µg/mL (≈ 576 µM), the MIC [23] was 64 µg/mL (≈ 144 µM) and the “MBC/MIC Ratio (R*)” value [24] was 2. The MBC [24] was 128 µg/mL (≈ 288 µM), the inhibition at 250 µg/mL [3] was 89% and the inhibition at 250 µg/mL [4] was 90%. For the same compound, the Ki [25] was 332000 ± 10900 nM, the inhibition at 250 µg/mL [5] was 89% and the MIC [6] was 128 µg/mL (≈ 288 µM). It also gave an MIC [7] of 128 µg/mL (≈ 288 µM), an MIC [8] of 32 µg/mL (≈ 72 µM) and an inhibition at 250 µg/mL [9] of 60%. The MIC [11] was 128 µg/mL (≈ 288 µM), the Ki [26] was 1790 ± 80 nM and the inhibition at 250 µg/mL [14] was 64%. For the same compound, the “MBC/MIC Ratio (R*)” value [27] was 2, the MBC [27] was 256 µg/mL (≈ 576 µM) and the MIC [17, 29] was 32 µg/mL (≈ 72 µM). The MIC [17] was 64 µg/mL (≈ 144 µM), the “MBC/MIC Ratio (R*)” value [28] was 2 and the MBC [28] was 256 µg/mL (≈ 576 µM).

With `COc1ccc2c(c1)/C(=N\NC(=O)c1cc(-c3cccc(Br)c3)n[nH]1)C(=O)N2` [PS11, (E)-3-(3-Bromophenyl)-N′-(5-Methoxy-2-Oxoindolin-3-Ylidene)-1H-Pyrazole-5-Carbohydrazide] the melting point was 245 to 248 °C, the Ki [18] was 2490 ± 310 nM and the Ki [19] was 1610 ± 250 nM. The inhibition at 250 µg/mL [1] was at least 94%, the “% Growth Inhibition at 250 µg/mL” value ([1]; listed as C00011) was 95% and the “MBC/MIC Ratio (R*)” value [20] was 1. For the same compound, the MBC [20] was 32 µg/mL (≈ 72.7 µM), the “MBC/MIC Ratio (R*)” value [21] was over 4 and the MBC [21] was over 512 µg/mL. For the same compound, the “MBC/MIC Ratio (R*)” value [22] was 4, the MBC [22] was 128 µg/mL (≈ 291 µM) and the MIC [23] was over 256 µg/mL. For the same compound, the “MBC/MIC Ratio (R*)” value [24] was 2, the MBC [24] was 512 µg/mL (≈ 1160 µM) and the inhibition at 250 µg/mL [3] was at least 94%. For the same compound, the “% Growth Inhibition at 250 µg/mL” value ([3]; listed as C00011) was 100%, the inhibition at 250 µg/mL [4] was at least 94% and the “% Growth Inhibition at 250 µg/mL” value ([4]; listed as C00011) was 96%. The Ki [25] was 15200 ± 3200 nM, the inhibition at 250 µg/mL [5] was at least 94% and the “% Growth Inhibition at 250 µg/mL” value ([5]; listed as C00011) was 97%. The MIC [6] was 32 µg/mL (≈ 72.7 µM), the MIC [7] was 128 µg/mL (≈ 291 µM) and the MIC [8] was 32 µg/mL (≈ 72.7 µM). The inhibition at 250 µg/mL [9] was at least 94%, the “% Growth Inhibition at 250 µg/mL” value ([9]; listed as C00011) was 100% and the MIC [11] was 128 µg/mL (≈ 291 µM). For the same compound, the Ki [26] was 1360 ± 170 nM, the inhibition at 250 µg/mL [14] was at least 94% and the “% Growth Inhibition at 250 µg/mL” value ([14]; listed as C00011) was 98%. For the same compound, the “MBC/MIC Ratio (R*)” value [27] was 2, the MBC [27] was 256 µg/mL (≈ 581 µM) and the MIC [17, 29] was 32 µg/mL (≈ 72.7 µM). For the same compound, the “MBC/MIC Ratio (R*)” value [28] was 1 and the MBC [28] was 32 µg/mL (≈ 72.7 µM).
